Entries after “also recorded” stand apart in the source; their conditions may differ.
Columns and labels:
[1] = Release of rhodamine B from PLGA microspheres during incubation in PBS; type: physicochemical; settings: 37° C.
Procedure: (§1) The rhodamine B, in its free base form, was dissolved in PLGA/ethyl acetate solutions at theoretical loadings of 1, 3 and 5%(mass drug/mass polymer). Microspheres of uniform 35, 50 and 65 μm diameters were fabricated, hardened and collected using the procedures described in the above examples. The presence of rhodamine had no observable effect on particle uniformity. Encapsulation of rhodamine (˜70% efficiency) was confirmed by fluorescence microscopy (FIG. 6, right). The rhodamine B is released from the spheres over the course of 7-10 days of incubation in PBS and 37° C.

[2] = Encapsulation of rhodamine B in PLGA microspheres, confirmed by fluorescence microscopy; type: physicochemical; settings: PLGA microspheres from PLGA/ethyl acetate solution, theoretical loadings 1, 3 and 5%
Procedure: as §1

CCN(CC)c1ccc2c(-c3ccccc3C(=O)O)c3ccc(=[N+](CC)CC)cc-3oc2c1 [rhodamine B]
time over which rhodamine B is released from the spheres ([1]; PLGA microspheres of uniform 35, 50 and 65 μm diameters, theoretical loadings 1, 3 and 5% (mass drug/mass polymer), incubation in PBS): 7 to 10 days
release rate ([1]; dependence on sphere size and drug loading, PLGA microspheres in PBS): faster when spheres were smaller (not shown) or contained more drug; also recorded: faster when spheres contained more drug
encapsulation efficiency [2]: ~70%
